Data taken from patent US20260306491A1, “EGFR INHIBITOR FOR TREATING CANCERS COMPRISING ATYPICAL EGFR MUTATIONS” (ORIC Pharmaceuticals, Inc., priority 2023, published 2026).
Counter-ions that a name gives are not always drawn.

Legend:
[1] = Moisture uptake by dynamic vapor sorption (DVS); assay type: physicochemical; details: 25° C./80% relative humidity
Description: DVS was measured via a SMS (Surface Measurement Systems) DVS Intrinsic.
The relative humidity at 25° C. was calibrated against deliquescence point of LiCl, Mg(NO3)2 and KCl.
Freebase Compound I was stirred with an equimolar amount of malonic acid in acetone at RT for 14.5 hrs. The slurry was subjected to vacuum drying at 50° C. for about 6 hrs. The malonate salt of Compound I was analyzed by XRPD, DSC, TGA, ^1H NMR, and DVS. […] As shown in the TGA graph, a weight loss of about 0.7% up to 130° C. was observed.
Freebase Compound I was stirred with an equimolar amount of glycolic acid in acetone at RT for 2 days, followed by vacuum drying at 50° C. for 2 hrs. The glycolate salt of Compound I was analyzed by XRPD, DSC, TGA, ^1H NMR, and DVS. […] As shown in the TGA graph, a weight loss of about 1.3% up to 120° C. was observed.

[2] = Solubility screening of malonate salt of Compound I in various solvents at RT; assay type: physicochemical
Description: The solubility of the malonate salt of Compound I as prepared according to Example 2 in various solvents at RT was measured. The malonate salt of Compound I (approximately 2 mg) was added to a 3-mL glass vial. The solvent was then added stepwise (50/50/200/200/500/1000 μL) into the vial until the solids were dissolved visually or a total volume of 2 mL was reached.

[3] = Biodistribution in plasma and brain after single oral dose in female CB17 SCID mice; assay type: in vivo; details: mouse, oral 50 mg/kg, 8 h
Description: Female non-tumor bearing Fox Chase CB17 SCID mice were orally administered a single dose as specified in Table B1.
Brain tissues were excised and plasma was collected from all the animals receiving Compound I, or tucatinib at 1 hour, 4 hours, and 8 hours post-administration. Tucatinib was used as a reference agent. Tucatinib is a clinically approved therapy for HER2 positive breast cancer patients with brain metastases. The harvested brains were rinsed in ice-cold phosphate-buffered saline and weighed. All plasma and brain samples were stored at approximately −80° C. until thawed for LC-MS/MS analysis.
Prior to analysis, brain tissues were homogenized 1:5 with phosphate buffer. Average free brain-to-free plasma ratio (Kp,uu) was calculated from individual mice by using total concentration values determined in the brain and plasma at individual time points, or by calculating the area under the curve (AUC) and converting the values to free concentration (or AUC) with in vitro binding parameters determined in the brain (fu,b) and plasma (fu,p) as follows:
Kp,uu=Brain Concentration (or AUC)*fu,b/Plasma Concentration (or AUC)*fu,p.
Free fraction in the brain (fu,b) and in plasma (fu,p) was determined with equilibrium dialysis as follows: The brain tissue homogenate or plasma from the mice were spiked to yield a final concentration of 1 μM Compound I, or 5 μM tucatinib. Compound I and tucatinib were incubated in equilibrium dialysis plate on a shaking incubator at 37° C. with 5% CO2 at 450 rpm for 8 hours and 24 hours, respectively. Following the incubation, aliquots of the matrix and the buffer samples were sampled and the concentration of Compound I, or tucatinib were determined.
where fu,b,d is fraction unbound determined with 20% brain homogenate.

SMILES: C=CC(=O)Nc1cc(Nc2cc(N3OCC[C@@H]3c3cc(F)cc(F)c3)ncn2)c(OC)cc1N1CCC(N2CCN(C3CC3)CC2)CC1 [malonate salt of Compound I]
- Moisture uptake [1]: 0.19%
- solubility ([2]; Water, RT): < 1200 µg/mL
- solubility ([2]; organic solvent or mixture, 1,4-Dioxane, RT): 2100 to 7000 µg/mL
- solubility ([2]; organic solvent or mixture, 2-MeTHF, RT): 1100 to 2200 µg/mL
- solubility ([2]; organic solvent or mixture, ACN, RT): 6000 to 18000 µg/mL
- solubility ([2]; organic solvent or mixture, Acetone, RT): 1100 to 2200 µg/mL
- solubility ([2]; organic solvent or mixture, Anisole, RT): < 900 µg/mL
- solubility ([2]; organic solvent or mixture, CHCl3, RT): > 40000 µg/mL
- solubility ([2]; organic solvent or mixture, CPME, RT): < 1100 µg/mL
- solubility ([2]; organic solvent or mixture, DCM, RT): 20000 to 40000 µg/mL
- solubility ([2]; organic solvent or mixture, DMSO, RT): > 40000 µg/mL
- solubility ([2]; organic solvent or mixture, EtOAc, RT): < 1000 µg/mL
- solubility ([2]; organic solvent or mixture, EtOH, RT): 1900 to 6300 µg/mL
- solubility ([2]; organic solvent or mixture, IPA, RT): < 1200 µg/mL
- solubility ([2]; organic solvent or mixture, IPAc, RT): < 900 µg/mL
- solubility ([2]; organic solvent or mixture, MIBK, RT): < 1200 µg/mL
- solubility ([2]; organic solvent or mixture, MTBE, RT): < 1000 µg/mL
- solubility ([2]; organic solvent or mixture, MeOH, RT): > 46000 µg/mL
- solubility ([2]; organic solvent or mixture, THF, RT): 2100 to 7000 µg/mL
- solubility ([2]; organic solvent or mixture, Toluene, RT): < 1000 µg/mL
- solubility ([2]; organic solvent or mixture, n-Heptane, RT): < 1100 µg/mL

SMILES: Cc1cc(Nc2ncnc3ccc(NC4=NC(C)(C)CO4)cc23)ccc1Oc1ccn2ncnc2c1 [tucatinib, reference compound]
- Unbound brain concentration [3]: below the limit of quantitation (BLOQ)
